Among the data in US12338220B2, “Antiviral pyrazolopiridinone compounds” (Novartis AG, priority 2019, dated 2025) are IC50 and EC50 values, retold here.

One assay deals with CMV-polymerase (Human cytomegalovirus (strain AD169) (HHV-5) (Human herpesvirus 5), UniProt P08546). Put plainly: biochemical.
A further assay has as its system CMV. Put plainly: microbe, parasite or virus in culture. Type of assay: cell-based. The conditions noted are these: Human betaherpesvirus 5, 72 h, read-out: CMV-Luc Cellular EC50, NN-NHDF cells, MOI 1, 72 hrs.
[1] abbreviates: CMV-polymerase Biochemical IC50.
The mark [2] stands for this setting: read-out: CMV-polymerase Biochemical IC50.

Each structure is given as a SMILES string. Read-outs that look alike come from different tables or passages of the source.

With `O=C(NCc1ccc(Cl)cc1)c1n[nH]c2c1CCN(CC1(S(=O)(=O)C3CC3)CC1)C2=O` [Example 44, N-(4-Chlorobenzyl)-6-((1-(cyclopropylsulfonyl)cyclopropyl)methyl)-7-oxo-4,5,6,7-tetrahydro-1H-pyrazolo[3,4-c]pyridine-3-carboxamide], at CMV-polymerase (setting [1]), it took 4 nM to reach half-maximal inhibition (IC50). Further, the EC50 – broadly, the concentration giving half of the maximal effect – in the assay on CMV worked out at 76 nM.

As to `CS(=O)(=O)C1(CN2CCc3c(nn4c3C(=O)N(Cc3ccc(C#N)cc3)CC4)C2=O)CC1` [Example 46, 4-((8-((1-(Methylsulfonyl)cyclopropyl)methyl)-1,7-dioxo-3,4,7,8,9,10-hexahydropyrido[3′,4′:3,4]pyrazolo[1,5-a]pyrazin-2(1H)-yl)methyl)benzonitrile], it took 41 nM to reach half-maximal inhibition against CMV-polymerase (setting [1]) (IC50). The EC50 in the assay with CMV turned out to be 746 nM.

For the compound `COC1CN(CC(C)(C)S(=O)(=O)C2(CN3CCc4c(C(=O)NCc5ccc(C#N)cc5)nn(C)c4C3=O)CC2)C1` [Example 66, N-(4-Cyanobenzyl)-6-((1-((1-(3-methoxyazetidin-1-yl)-2-methylpropan-2-yl)sulfonyl)cyclopropyl)methyl)-1-methyl-7-oxo-4,5,6,7-tetrahydro-1H-pyrazolo[3,4-c]pyridine-3-carboxamide], the IC50 (in general, the concentration that gives 50% inhibition) at CMV-polymerase (setting [2]) is 2 nM. Further, the EC50 in the assay with CMV stood at 88 nM.

With `Cn1nc(C(=O)NCc2ccc(Cl)cc2)c2c1C(=O)N(CC1(S(=O)(=O)NC(C)(CO)CO)CC1)CC2` [Example 153, N-(4-Chlorobenzyl)-6-((1-(N-(1,3-dihydroxy-2-methylpropan-2-yl)sulfamoyl)cyclopropyl)methyl)-1-methyl-7-oxo-4,5,6,7-tetrahydro-1H-pyrazolo[3,4-c]pyridine-3-carboxamide], the IC50 at CMV-polymerase (setting [2]) was determined as 20 nM. Further, the concentration for a half-maximal effect (EC50) in the assay on CMV stood at 305 nM.

Regarding `Cn1nc(C(=O)NCc2ccc(C#N)cc2)c2c1C(=O)N(CC1(S(=O)(=O)NC3CCNCC3)CC1)CC2` [Example 137, N-(4-Cyanobenzyl)-1-methyl-7-oxo-6-((1-(N-(piperidin-4-yl)sulfamoyl)cyclopropyl)methyl)-4,5,6,7-tetrahydro-1H-pyrazolo[3,4-c]pyridine-3-carboxamide], on CMV-polymerase (setting [2]), the IC50 was determined as 44 nM. Further, the concentration for a half-maximal effect (EC50) with CMV turned out to be 636 nM.

`Cn1nc(C(=O)NCc2ccc(C#N)cc2)c2c1C(=O)N(CC1(S(=O)(=O)Nc3ccccn3)CC1)CC2` [Example 155, N-(4-cyanobenzyl)-1-methyl-7-oxo-6-((1-(N-(pyridin-2-yl)sulfamoyl)cyclopropyl)methyl)-4,5,6,7-tetrahydro-1H-pyrazolo[3,4-c]pyridine-3-carboxamide]: the IC50 at CMV-polymerase (setting [1]) amounted to 2 nM. Also, the EC50 in the assay on CMV was 57 nM.

`COCC(C)(COC)S(=O)(=O)C1(CN2CCc3c(C(=O)NCc4ccc(C#N)cc4)nn(C)c3C2=O)CC1` [Example 179, N-(4-Cyanobenzyl)-6-((1-((1,3-dimethoxy-2-methylpropan-2-yl)sulfonyl)cyclopropyl)methyl)-1-methyl-7-oxo-4,5,6,7-tetrahydro-1H-pyrazolo[3,4-c]pyridine-3-carboxamide]: at CMV-polymerase (setting [2]), the IC50 was determined as 2 nM. Further, the EC50 in the assay on CMV was 49 nM.

`CC1(S(=O)(=O)C2(CN3CCc4c(C(=O)NCc5ccc(C#N)cc5)nn(CCCO)c4C3=O)CC2)CC1` [Example 237, N-(4-Cyanobenzyl)-1-(3-hydroxypropyl)-6-((1-((1-methylcyclopropyl)sulfonyl)cyclopropyl)methyl)-7-oxo-4,5,6,7-tetrahydro-1H-pyrazolo[3,4-c]pyridine-3-carboxamide]: the IC50 at CMV-polymerase (setting [2]) was found to be 2 nM. In addition, the concentration giving a half-maximal response (EC50) with CMV turned out to be 38 nM.

Consider `Cn1nc(C(=O)NCc2ccc(C#N)cc2)c2c1C(=O)N(CC1(S(=O)(=O)NCCCN)CC1)CC2` [Example 134, 6-((1-(N-(3-Aminopropyl)sulfamoyl)cyclopropyl)methyl)-N-(4-cyanobenzyl)-1-methyl-7-oxo-4,5,6,7-tetrahydro-1H-pyrazolo[3,4-c]pyridine-3-carboxamide], for which the IC50 on CMV-polymerase (setting [2]) worked out at 31 nM. In addition, in the assay with CMV, the concentration giving a half-maximal response (EC50) is 443 nM.

Take `Cn1nc(C(=O)NCc2ccc(C#N)cc2)c2c1C(=O)N(CC1(S(=O)(=O)C(C)(CN)CO)CC1)CC2` (stereo not shown) [Example 183, 6-((1-((1-Amino-3-hydroxy-2-methylpropan-2-yl)sulfonyl)cyclopropyl)methyl)-N-(4-cyanobenzyl)-1-methyl-7-oxo-4,5,6,7-tetrahydro-1H-pyrazolo[3,4-c]pyridine-3-carboxamide]: on CMV-polymerase (setting [2]), the 50% inhibitory concentration (IC50) is 5 nM. Moreover, in the assay with CMV, the EC50 came out at 220 nM.

Turning to `Cn1nc(-c2cn(CC3CCC(F)(F)CC3)nn2)c2c1C(=O)N(CC1(S(=O)(=O)C3CC3)CC1)CC2` [Example 36, 6-((1-(Cyclopropylsulfonyl)cyclopropyl)methyl)-3-(1-((4,4-difluorocyclohexyl)methyl)-1H-1,2,3-triazol-4-yl)-1-methyl-5,6-dihydro-1H-pyrazolo[3,4-c]pyridin-7(4H)-one], on CMV-polymerase (setting [2]), the IC50 worked out at 5 nM. For the same compound, the concentration for a half-maximal effect (EC50) with CMV was 571 nM.

At CMV-polymerase (setting [1]), `Cn1nc(C(=O)COc2ccc(C#N)cc2)c2c1C(=O)N(CC1(S(=O)(=O)C3CC3)CC1)CC2` [Example 25, 4-(2-(6-((1-(Cyclopropylsulfonyl)cyclopropyl)methyl)-1-methyl-7-oxo-4,5,6,7-tetrahydro-1H-pyrazolo[3,4-c]pyridin-3-yl)-2-oxoethoxy)benzonitrile] showed a concentration for half-maximal inhibition (IC50) of 2 nM. Also, in the assay with CMV, the concentration giving a half-maximal response (EC50) was determined as 30 nM.

At CMV-polymerase (setting [1]), `Cn1nc(C(=O)NCc2ccc(C#N)cc2)c2c1C(=O)N(CC1(S(=O)(=O)C(C)(C)COCC(C)(C)O)CC1)CC2` [Example 86, N-(4-Cyanobenzyl)-6-((1-((1-(2-hydroxy-2-methylpropoxy)-2-methylpropan-2-yl)sulfonyl)cyclopropyl)methyl)-1-methyl-7-oxo-4,5,6,7-tetrahydro-1H-pyrazolo[3,4-c]pyridine-3-carboxamide] had an IC50 of 18 nM. The concentration giving a half-maximal response (EC50) with CMV is 145 nM.

For `Cn1nc(C(=O)NCc2ccc(C#N)cc2)c2c1C(=O)N(CC1(S(=O)(=O)NCCO)CC1)CC2` [Example 145, N-(4-Cyanobenzyl)-6-((1-(N-(2-hydroxyethyl)sulfamoyl)cyclopropyl)methyl)-1-methyl-7-oxo-4,5,6,7-tetrahydro-1H-pyrazolo[3,4-c]pyridine-3-carboxamide], the IC50 at CMV-polymerase (setting [2]) amounted to 14 nM. Further, in the assay with CMV, the EC50 was found to be 303 nM.

`CC1(C)COCCOCCn2nc(C(=O)NCc3ccc(C#N)cc3)c3c2C(=O)N(CC3)CC2(CC2)S1(=O)=O` [Example 239, Ethylene glycol macrocycle N-(4-cyanobenzyl)carboxamide]: the midpoint of inhibition on CMV-polymerase (setting [1]), the IC50, lay at 1 nM. In addition, in the assay on CMV, the EC50 was determined as 23 nM.

In the case of `CN(C(CO)CO)S(=O)(=O)C1(CN2CCc3c(C(=O)NCc4ccc(C#N)cc4)nn(C)c3C2=O)CC1` [Example 147, N-(4-Cyanobenzyl)-6-((1-(N-(1,3-dihydroxypropan-2-yl)-N-methylsulfamoyl)cyclopropyl)methyl)-1-methyl-7-oxo-4,5,6,7-tetrahydro-1H-pyrazolo[3,4-c]pyridine-3-carboxamide], the IC50 on CMV-polymerase (setting [2]) worked out at 30 nM. Besides, in the assay with CMV, the half-maximal effective concentration (EC50) was found to be 604 nM.

Turning to `Cn1nc(C(=O)NCc2ccc(Cl)s2)c2c1C(=O)N(CC1(S(=O)(=O)C3CC3)CC1)CC2` [Example 10, N-((5-Chlorothiophen-2-yl)methyl)-6-((1-(cyclopropylsulfonyl)cyclopropyl)methyl)-1-methyl-7-oxo-4,5,6,7-tetrahydro-1H-pyrazolo[3,4-c]pyridine-3-carboxamide], the concentration for half-maximal inhibition (IC50) at CMV-polymerase (setting [2]) was found to be 26 nM. For the same compound, in the assay with CMV, the EC50 came to 259 nM.

As to `Cn1nc(C(=O)NCc2ccc(Cl)cc2)c2c1C(=O)N(CC1(S(=O)(=O)NC(C)(C)CO)CC1)CC2` [Example 148, N-(4-Chlorobenzyl)-6-((1-(N-(1-hydroxy-2-methylpropan-2-yl)sulfamoyl)cyclopropyl)methyl)-1-methyl-7-oxo-4,5,6,7-tetrahydro-1H-pyrazolo[3,4-c]pyridine-3-carboxamide], the half-maximal inhibitory concentration (IC50) at CMV-polymerase (setting [2]) came out at 15 nM. Moreover, the EC50 in the assay on CMV came out at 139 nM.

With `CNS(=O)(=O)C1(CN2CCc3c(C(=O)NCc4ccc(Cl)cc4)nn(C)c3C2=O)CC1` [Example 151, N-(4-Chlorobenzyl)-1-methyl-6-((1-(N-methylsulfamoyl)cyclopropyl)methyl)-7-oxo-4,5,6,7-tetrahydro-1H-pyrazolo[3,4-c]pyridine-3-carboxamide], the IC50 on CMV-polymerase (setting [2]) came to 8 nM. Besides, in the assay on CMV, the concentration giving a half-maximal response (EC50) turned out to be 64 nM.

On to `Cc1ncccc1NS(=O)(=O)C1(CN2CCc3c(C(=O)NCc4ccc(C#N)cc4)nn(C)c3C2=O)CC1` [Example 161, N-(4-Cyanobenzyl)-1-methyl-6-((1-(N-(2-methylpyridin-3-yl)sulfamoyl)cyclopropyl)methyl)-7-oxo-4,5,6,7-tetrahydro-1H-pyrazolo[3,4-c]pyridine-3-carboxamide], for which the half-maximal inhibitory concentration (IC50) at CMV-polymerase (setting [2]) turned out to be 2 nM. Besides, the EC50 in the assay on CMV came out at 61 nM.

For `Cn1nc(C(=O)NCc2ccc(C#N)cc2)c2c1C(=O)N(CC1(S(=O)(=O)NCCN)CC1)CC2` [Example 135, 6-((1-(N-(2-Aminoethyl)sulfamoyl)cyclopropyl)methyl)-N-(4-cyanobenzyl)-1-methyl-7-oxo-4,5,6,7-tetrahydro-1H-pyrazolo[3,4-c]pyridine-3-carboxamide], the concentration for half-maximal inhibition (IC50) at CMV-polymerase (setting [2]) was found to be 62 nM. Further, the EC50 in the assay with CMV amounted to 536 nM.

As for `Cn1nc(C(=O)NCc2ccc(C#N)c(F)c2)c2c1C(=O)N(CC1(S(C)(=O)=O)CC1)CC2` [Example 23, N-(4-Cyano-3-fluorobenzyl)-1-methyl-6-((1-(methylsulfonyl)cyclopropyl)methyl)-7-oxo-4,5,6,7-tetrahydro-1H-pyrazolo[3,4-c]pyridine-3-carboxamide], the IC50 at CMV-polymerase (setting [2]) turned out to be 7 nM. For the same compound, the concentration for a half-maximal effect (EC50) in the assay on CMV is 86 nM.

`Cn1nc(C(=O)NCc2ccc(Cl)cc2)c2c1C(=O)N(CC1(S(=O)(=O)C(C)(C)[C@H](O)CO)CC1)CC2` [Example 191, (R)—N-(4-Chlorobenzyl)-6-((1-((3,4-dihydroxy-2-methylbutan-2-yl)sulfonyl)cyclopropyl)methyl)-1-methyl-7-oxo-4,5,6,7-tetrahydro-1H-pyrazolo[3,4-c]pyridine-3-carboxamide]: the IC50 on CMV-polymerase (setting [2]) is 1 nM. Also, in the assay on CMV, the concentration for a half-maximal effect (EC50) was 5 nM.
